From article PMC10600239, “Selective MCL-1 inhibitor ABBV-467 is efficacious in tumor models but is associated with cardiac troponin increases in patients” (Communications Medicine, 2023)

Assays:
Kv11.1 (hERG) = Kv11.1 (hERG) (Homo sapiens, UniProt Q12809); experiment: in vitro; conditions: CHO cells expressing human Kv11.1 (hERG)
[1] = tested on: Murine p185+ B-ALL cells expressing human MCL-1; experiment: Engineered murine B-cell ALL lines, cell viability (CellTiter-Glo); assay type: cell-based; conditions: Mus musculus, 24 hours, 10% fetal bovine serum
Protocol: Supplementary Table S3: Cellular potency and selectivity of ABBV-467 in
engineered murine B-c ell ALL c ell li nes
B-Cell ALL Lines (EC50, nM)
BCL-XL BCL-2 BCL-w BCL2A1 MCL-1
Murine p185+ B-ALL cells selectiv ely expressing individual human anti–BCL-2 family members (36)
were treated with ABBV-467 for 24 hours in RPMI-1640 media ( Life Technologies, CA) containing
10% fetal bovine serum, 55 μM 2 -mercaptoethanol, 2 mM glutamine, and 1%
penicil lin/ stre ptomycin an d th e i mpact on cell via bility de termi ned usi ng Ce llTiter- Glo. Each EC50 was
calculated from the resulting dose- response curves. Data are presented as the mean of three
independent experiments, except *(n=2). Where an EC50 could not be accurately determined,
activity was define d as >3,000 nM.
ALL, acute lymphoblastic leukemia; BCL- 2, B-cell lymphoma 2; EC 50, half maximal effective

monkey MCL1 = biological target: T1, monkey MCL1 (Macaca mulatta, UniProt F7HUE9); experiment: TR-FRET binding assay, MCL-1 orthologs; design: species or system Monkey Macaca sp.
T1 construct: rhesus monkey (iso4, NM_001 1089 3 7, AA 171-327); made in house; host or cells: E. coli BL21(DE3)-T1R
Protocol: Binding affinities for MCL-1, BCL-2, BCL-XL, BCL-W, and BCL2-A1 were determined using a time-resolved fluorescence resonance energy transfer (FRET) assay. Test compounds were serially diluted in DMSO starting at […] (20× starting concentration; 100% DMSO followed by a 1:10 dilution of the compound DMSO plate into assay buffer); 10 µL of the compound in 10% DMSO was then transferred into a 384-well plate (low-volume Corning #3673 assay plate). Glutathione S-transferase (GST)-tagged recombinant BCL-2, BCL-XL, MCL-1, BCL-W, or BCL2-A1 protein (1 nM each) were mixed with 100 nM Oregon Green™-labeled f-BAK peptide probe and 1 nM Tb-labeled anti-GST antibody were mixed. Then 10 µL of a 2× protein/probe/antibody mix was added to each well of increasing concentrations of test compound in assay buffer (20 mM potassium phosphate, pH 7.6, 50 mM NaCl, 1 mM ethylenediaminetetraacetic acid disodium salt dihydrate, 0.05% pluronic acid F-68, 1 mM DL-dithiothreitol) at room temperature (final concentrations listed in Supplementary Table S2). […] Fluorescence was measured on the EnVision™ (Perkin Elmer) using a 340/35-nm excitation filter and 520/525- (F-Bak) and 495/510-nm (Tb-labeled anti-glutathione S-transferase [GST] antibody) emission filters. Dissociation constants were determined using Wang’s equation[35]. […]
Amino acid sequence homology determined with NCBI BLAST (http://blast.ncbi.nlm.nih.gov). […]

Kv11.1 (hERG), sequence (Q12809 whole entry): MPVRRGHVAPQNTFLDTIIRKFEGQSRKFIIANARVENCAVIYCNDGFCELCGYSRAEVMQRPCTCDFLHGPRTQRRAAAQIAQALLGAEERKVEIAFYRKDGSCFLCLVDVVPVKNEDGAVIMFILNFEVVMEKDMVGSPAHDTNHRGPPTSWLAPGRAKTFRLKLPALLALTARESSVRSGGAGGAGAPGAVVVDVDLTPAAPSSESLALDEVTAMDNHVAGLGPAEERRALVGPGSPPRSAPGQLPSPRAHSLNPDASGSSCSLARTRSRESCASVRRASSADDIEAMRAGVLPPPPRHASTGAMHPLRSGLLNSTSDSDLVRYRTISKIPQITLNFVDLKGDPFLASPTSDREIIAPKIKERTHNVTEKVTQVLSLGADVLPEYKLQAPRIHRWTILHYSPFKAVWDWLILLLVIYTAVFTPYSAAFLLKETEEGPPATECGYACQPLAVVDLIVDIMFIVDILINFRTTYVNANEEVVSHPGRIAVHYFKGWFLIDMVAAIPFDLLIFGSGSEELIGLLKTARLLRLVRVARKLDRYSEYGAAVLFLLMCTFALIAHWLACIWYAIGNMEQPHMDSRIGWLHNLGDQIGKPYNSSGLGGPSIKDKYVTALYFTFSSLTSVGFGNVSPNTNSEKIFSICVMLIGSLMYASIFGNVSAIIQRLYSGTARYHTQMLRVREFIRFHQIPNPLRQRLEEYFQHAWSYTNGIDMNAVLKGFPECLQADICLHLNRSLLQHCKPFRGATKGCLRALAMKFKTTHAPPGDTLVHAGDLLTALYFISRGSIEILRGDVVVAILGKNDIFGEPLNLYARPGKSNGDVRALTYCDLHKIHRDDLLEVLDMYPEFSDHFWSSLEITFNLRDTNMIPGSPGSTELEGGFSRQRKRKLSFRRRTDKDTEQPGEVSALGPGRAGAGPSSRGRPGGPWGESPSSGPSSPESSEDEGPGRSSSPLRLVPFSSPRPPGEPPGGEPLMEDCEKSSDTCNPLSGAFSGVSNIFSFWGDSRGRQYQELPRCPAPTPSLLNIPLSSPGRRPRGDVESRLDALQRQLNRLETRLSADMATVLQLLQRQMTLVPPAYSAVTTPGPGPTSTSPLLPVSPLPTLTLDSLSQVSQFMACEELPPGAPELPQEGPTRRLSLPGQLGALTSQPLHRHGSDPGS
T1 sequence (F7HUE9 171-327): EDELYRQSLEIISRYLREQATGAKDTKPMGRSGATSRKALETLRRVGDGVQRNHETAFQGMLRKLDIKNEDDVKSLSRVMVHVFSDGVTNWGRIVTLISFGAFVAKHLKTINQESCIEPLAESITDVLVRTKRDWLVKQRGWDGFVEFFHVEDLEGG

## Cc1c(Cl)c2c(Cl)c(C)c1-c1c(-c3ccc(F)cc3)sc3ncnc(c13)O[C@@H](C(=O)O)Cc1cc(ccc1OCc1ccnc(-c3ccc(OC[C@H]4COCCO4)cc3)n1)OC[C@@H](CN1CCN(C)CC1)O2 [ABBV-467]
Kv11.1 (hERG)
  IC50: > 30000 nM
[1]
  EC50: 20.3 nM
Monkey MCL1
  Ki: < 0.1 nM
